Laboratory results as given in PubChem BioAssay (NCI).
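GI50 marks 50% less growth. TGI denotes the concentration required for complete inhibition of growth.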

What was measured:
Test in all cases: inhibition of tumour cell growth, NCI panel, 384-well format
SK-OV-3 ovarian = system: SK-OV-3 ovarian
SK-MEL-5 melanoma = system: SK-MEL-5 melanoma
SF-539 CNS = system: SF-539 CNS
SNB-19 CNS = system: SNB-19 CNS
NCI-H460 NSCLC = system: NCI-H460 NSCLC
OVCAR-8 ovarian = system: OVCAR-8 ovarian
PC-3 prostate = system: PC-3 prostate
K-562 leukemia = system: K-562 leukemia
CCRF-CEM leukemia = system: CCRF-CEM leukemia
DU-145 prostate = system: DU-145 prostate
786-0 renal = system: 786-0 renal
UO-31 renal = system: UO-31 renal
T-47D breast = system: T-47D breast
MDA-MB-435 melanoma = system: MDA-MB-435 melanoma
CAKI-1 renal = system: CAKI-1 renal
HCT-116 colon = system: HCT-116 colon
UACC-257 melanoma = system: UACC-257 melanoma
OVCAR-5 ovarian = system: OVCAR-5 ovarian
RXF 393 renal = system: RXF 393 renal
SF-268 CNS = system: SF-268 CNS
HCC-2998 colon = system: HCC-2998 colon
RPMI-8226 leukemia = system: RPMI-8226 leukemia
KM12 colon = system: KM12 colon
NCI-H522 lung = system: NCI-H522 lung
NCI-H23 lung = system: NCI-H23 lung
MCF7 breast = system: MCF7 breast
OVCAR-4 ovarian = system: OVCAR-4 ovarian
IGROV1 ovarian = system: IGROV1 ovarian
HCT-15 colon = system: HCT-15 colon
SN12C renal = system: SN12C renal
BT-549 breast = system: BT-549 breast
NCI/ADR-RES ovarian = system: NCI/ADR-RES ovarian
LOX IMVI melanoma = system: LOX IMVI melanoma
HOP-92 NSCLC = system: HOP-92 NSCLC
HT29 colon = system: HT29 colon
MALME-3M melanoma = system: MALME-3M melanoma
SK-MEL-28 melanoma = system: SK-MEL-28 melanoma
NCI-H226 lung = system: NCI-H226 lung
MOLT-4 leukemia = system: MOLT-4 leukemia
HOP-62 NSCLC = system: HOP-62 NSCLC
ACHN renal = system: ACHN renal
SF-295 CNS = system: SF-295 CNS
HL-60(TB) leukemia = system: HL-60(TB) leukemia
M14 melanoma = system: M14 melanoma
A549 NSCLC = system: A549 NSCLC
SK-MEL-2 melanoma = system: SK-MEL-2 melanoma
UACC-62 melanoma = system: UACC-62 melanoma
U251 glioblastoma = system: U251 glioblastoma
MDA-MB-468 breast = system: MDA-MB-468 breast
COLO 205 colon = system: COLO 205 colon
OVCAR-3 ovarian = system: OVCAR-3 ovarian
MDA-MB-231 breast = system: MDA-MB-231 breast
SR leukemia = system: SR leukemia
A498 renal = system: A498 renal
NCI-H322M lung = system: NCI-H322M lung
TK-10 renal = system: TK-10 renal
SW-620 colon = system: SW-620 colon

C=CC(=O)N1C[C@@H]2CCOc3c(Cl)c(-c4c(O)cccc4F)c(F)c4ncnc(c34)N2C[C@H]1C
GI50 (SK-OV-3 ovarian): 2190 nM
TGI (SK-OV-3 ovarian): 8.03 µM
GI50 (SK-MEL-5 melanoma): 1620 nM
TGI (SK-MEL-5 melanoma): 3.41 µM
GI50 (SF-539 CNS): 1800 nM
TGI (SF-539 CNS): 3.45 µM
GI50 (SNB-19 CNS): 3.76 µM
TGI (SNB-19 CNS): 16 µM
GI50 (NCI-H460 NSCLC): 2340 nM
TGI (NCI-H460 NSCLC): 5.34 µM
GI50 (OVCAR-8 ovarian): 1640 nM
TGI (OVCAR-8 ovarian): 3.06 µM
GI50 (PC-3 prostate): 3.04 µM
TGI (PC-3 prostate): 10.6 µM
GI50 (K-562 leukemia): 1740 nM
TGI (K-562 leukemia): 3.68 µM
GI50 (CCRF-CEM leukemia): 1600 nM
TGI (CCRF-CEM leukemia): 3.05 µM
GI50 (DU-145 prostate): 1950 nM
TGI (DU-145 prostate): 5.12 µM
GI50 ([…]-0 renal): 1730 nM
TGI (786-0 renal): 3.91 µM
GI50 (UO-31 renal): 1920 nM
TGI (UO-31 renal): 9.16 µM
GI50 (T-47D breast): 1890 nM
TGI (T-47D breast): 5.47 µM
GI50 (MDA-MB-435 melanoma): 1910 nM
TGI (MDA-MB-435 melanoma): 3.96 µM
GI50 (CAKI-1 renal): 1560 nM
TGI (CAKI-1 renal): 6.43 µM
GI50 (HCT-116 colon): 2200 nM
TGI (HCT-116 colon): 5.95 µM
GI50 (UACC-257 melanoma): 1290 nM
TGI (UACC-257 melanoma): 6.42 µM
GI50 (OVCAR-5 ovarian): 4.71 µM
TGI (OVCAR-5 ovarian): 17 µM
GI50 (RXF 393 renal): 60.1 nM
TGI (RXF 393 renal): 407 nM
GI50 (SF-268 CNS): 2100 nM
TGI (SF-268 CNS): 4.86 µM
GI50 (HCC-2998 colon): 1570 nM
TGI (HCC-2998 colon): 3.15 µM
GI50 (RPMI-8226 leukemia): 232 nM
TGI (RPMI-8226 leukemia): 1280 nM
GI50 (KM12 colon): 1880 nM
TGI (KM12 colon): 4.27 µM
GI50 (NCI-H522 lung): 1630 nM
TGI (NCI-H522 lung): 3.54 µM
TGI (NCI-H23 lung): 22.7 nM
GI50 (MCF7 breast): 3.1 µM
TGI (MCF7 breast): 11.6 µM
GI50 (OVCAR-4 ovarian): 1960 nM
TGI (OVCAR-4 ovarian): 4.75 µM
GI50 (IGROV1 ovarian): 1700 nM
TGI (IGROV1 ovarian): 4.64 µM
GI50 (HCT-15 colon): 2630 nM
TGI (HCT-15 colon): 10.6 µM
GI50 (SN12C renal): 1960 nM
TGI (SN12C renal): 4.23 µM
GI50 (BT-549 breast): 1260 nM
TGI (BT-549 breast): 2970 nM
GI50 (NCI/ADR-RES ovarian): 1760 nM
TGI (NCI/ADR-RES ovarian): 3.53 µM
GI50 (LOX IMVI melanoma): 4.18 µM
TGI (LOX IMVI melanoma): 11.4 µM
GI50 (HOP-92 NSCLC): 2950 nM
TGI (HOP-92 NSCLC): 9.36 µM
GI50 (HT29 colon): 2540 nM
TGI (HT29 colon): 6.84 µM
GI50 (MALME-3M melanoma): 1930 nM
TGI (MALME-3M melanoma): 7.88 µM
GI50 (SK-MEL-28 melanoma): 2360 nM
TGI (SK-MEL-28 melanoma): 8.43 µM
GI50 (NCI-H226 lung): 2150 nM
TGI (NCI-H226 lung): 5.78 µM
GI50 (MOLT-4 leukemia): 1160 nM
TGI (MOLT-4 leukemia): 2400 nM
GI50 (HOP-62 NSCLC): 30.9 nM
TGI (HOP-62 NSCLC): 4.75 µM
GI50 (ACHN renal): 2580 nM
TGI (ACHN renal): 7.93 µM
GI50 (SF-295 CNS): 7.48 µM
TGI (SF-295 CNS): 20.3 µM
GI50 (HL-60(TB) leukemia): 1290 nM
TGI (HL-60(TB) leukemia): 2620 nM
GI50 (M14 melanoma): 2620 nM
TGI (M14 melanoma): 10.1 µM
GI50 (A549 NSCLC): 2240 nM
TGI (A549 NSCLC): 6.75 µM
GI50 (SK-MEL-2 melanoma): 1220 nM
TGI (SK-MEL-2 melanoma): 2630 nM
GI50 (UACC-62 melanoma): 1410 nM
TGI (UACC-62 melanoma): 5.5 µM
GI50 (U251 glioblastoma): 2430 nM
TGI (U251 glioblastoma): 7.66 µM
GI50 (MDA-MB-468 breast): 1680 nM
TGI (MDA-MB-468 breast): 3.62 µM
GI50 (COLO 205 colon): 2010 nM
TGI (COLO 205 colon): 4.52 µM
GI50 (OVCAR-3 ovarian): 1550 nM
TGI (OVCAR-3 ovarian): 3.04 µM
GI50 (MDA-MB-231 breast): 2610 nM
TGI (MDA-MB-231 breast): 8.92 µM
GI50 (SR leukemia): 1070 nM
TGI (SR leukemia): 2280 nM
GI50 (A498 renal): 2270 nM
TGI (A498 renal): 8.26 µM
GI50 (NCI-H322M lung): 6.66 µM
TGI (NCI-H322M lung): 19.4 µM
GI50 (TK-10 renal): 2400 nM
TGI (TK-10 renal): 10.7 µM
GI50 (SW-620 colon): 2270 nM
TGI (SW-620 colon): 4.07 µM
